# From patent US9126969B2, “Pyrazolylbenzimidazole derivatives, compositions containing them and use thereof” (AVENTIS PHARMA S.A., priority 2006, dated 2015)
# Structures can show the parent of a compound that is named as a salt. Where two headings read alike, the source gives them in different places.
# Assays:
# [1] = system: HeLa cells (tumor cell line); assay: FDA-PI viability/proliferation assay on HeLa tumor cells; assay type: cell-based; details: for IC50: Homo sapiens; for ratio: PBL viability IC50 / HeLa viability IC50
# Description: (§1) The compounds were tested in a viability/proliferation assay for comparing, under similar conditions, their activity on proliferating tumor cells and on quiescent normal cells.
# (§2) The HeLa cells (tumor cell line) and the PBLs (quiescent cells, peripheral blood lymphocytes) originate, respectively, from the ATCC and from Cambrex.
# (§3) The HeLa cells (tumor cell line) are seeded at 0.25×10^6 cells/well in 2 mL of culture medium. The products are added 24 h after seeding. After incubation for 48 h in the presence of the products, all the HeLa cells (supernatant and adherent cells) are recovered, centrifuged and taken up in PBS containing a final concentration of 0.25 μg/mL of fluorescein diacetate (FDA), 10 μg/mL of propidium iodide (PI) and 3 μL/mL of 10 μm beads. The cell suspensions are filtered immediately before analysis on the Facscalibur. The PBLs are seeded at 10^6 cells/well in 2 mL of culture medium. The products are added 1-4 h after seeding. After incubation for 48 h in the presence of the products, half the cell suspension is recovered and incubated in the presence of a final concentration of 0.25 μg/mL of fluorescein diacetate (FDA), 10 μg/mL of propidium iodide (PI) and 2 μL/mL of 10 μm beads.
# (§4) The FDA which enters the cells is cleaved by esterases only in live cells, releasing the fluorescein which emits a fluorescent radiation in the green range when it is excited (generally by UV radiation). The PI enters only the dead cells, the membrane of which is permeabilized, and emits a fluorescent radiation in the red range when it is excited. The beads are used as tracers for the dead cells having already disappeared at the time of reading.
# (§5) Calculation: The % of viable cells relative to the nontreated control is given by: (number of live cells/number of live cells in the control)/(number of beads/number of beads in the control)×100 for the HeLa cells, and by: (number of live cells/number of live cells in the control)×100 for the quiescent PBLs. The products according to the invention are tested at several concentrations and an IC50, corresponding to the concentration which causes 50% of the maximum inhibition, is calculated.
# [2] = system: PBLs (quiescent cells, peripheral blood lymphocytes); assay: FDA-PI viability assay on quiescent PBLs; assay type: cell-based; details: Lymphocyte, 48 h incubation, read-out: Viability PBL IC50
# Description: as §1, §2, §3, §4, §5
# [3] = HeLa cells, 48 h incubation, read-out: Viability HeLa IC50
# [4] = HeLa, read-out: IC50 values on the tumor cells
SMILES,"IC50 [1, 3]","IC50 [1, 4]",ratio [1],IC50 [2]
"Cl.O=C(Nc1c[nH]nc1-c1nc2cc(F)c(N3CCOCC3)cc2[nH]1)N1CCCCC1 [Example 1, N-[3-(5-fluoro-6-morpholin-4-yl-1H-benzimidazol-2-yl)-1H-pyrazol-4-yl]piperidine-1-carboxamide Hydrochloride]",107 nM,–,70,7550 nM
"CCN(CC)C(=O)Nc1c[nH]nc1-c1nc2cc(OCCCCN3CCCCC3)c(F)cc2[nH]1 [Example 9, 1,1-diethyl-3-{3-[6-fluoro-5-(4-piperidin-1-ylbutoxy)-1H-benzimidazol-2-yl]-1H-pyrazol-4-yl}urea Trifluoroacetate]",–,< 100 nM,–,–
"CN1CCN(c2cc3[nH]c(-c4n[nH]cc4NC(=O)N4CCCCC4)nc3cc2F)CC1.O=C(O)C(F)(F)F [Example 12, N-{3-[5-fluoro-6-(4-methylpiperazin-1-yl)-1H-benzimidazol-2-yl]-1H-pyrazol-4-yl}piperidine-1-carboxamide Trifluoroacetate]",56 nM,–,62,3490 nM
"CC(C)N(C(=O)Nc1c[nH]nc1-c1nc2cc(F)c(N3CCOCC3)cc2[nH]1)C(C)C [Example 16, 3-[3-(5-fluoro-6-morpholin-4-yl-1H-benzimidazol-2-yl)-1H-pyrazol-4-yl]-1,1-diisopropylurea]",–,< 100 nM,–,–
"CN1CCCN(c2cc3[nH]c(-c4n[nH]cc4NC(=O)N4CCCCC4)nc3cc2F)CC1.O=C(O)C(F)(F)F [Example 17, N-{3-[5-fluoro-6-(4-methylperhydro-1,4-diazepin-1-yl)-1H-benzimidazol-2-yl]-1H-pyrazol-4-yl}-piperidine-1-carboxamide Trifluoroacetate]",100 nM,–,42,4250 nM
"CCN(CC)C(=O)Nc1c[nH]nc1-c1nc2cc(F)c(N3CCCN(C)CC3)cc2[nH]1 [Example 18, 1,1-diethyl-3-{3-[5-fluoro-6-(4-methylperhydro-1,4-diazepin-1-yl)-1H-benzimidazol-2-yl]-1H-pyrazol-4-yl}urea]",39 nM,–,96,3760 nM
"CCN(CC)C(=O)Nc1c[nH]nc1-c1nc2ccc(N3CCN(C)CC3)cc2[nH]1 [Example 19, 1,1-diethyl-3-{3-[6-(4-methylpiperazin-1-yl)-1H-benzimidazol-2-yl]-1H-pyrazol-4-yl}urea]",–,< 100 nM,–,–
"CN1CCN(c2ccc3nc(-c4n[nH]cc4NC(=O)N4CCCCC4)[nH]c3c2)CC1 [Example 20, N-{3-[6-(4-methylpiperazin-1-yl)-1H-benzimidazol-2-yl]-1H-pyrazol-4-yl}piperidine-1-carboxamide]",–,< 100 nM,–,–
"CN(C)CCCOc1cc2[nH]c(-c3n[nH]cc3NC(=O)N3CCNCC3)nc2cc1F [Example 31, N-{3-[6-(3-Dimethylaminopropoxy)-5-fluoro-1H-benzimidazol-2-yl]-1H-pyrazol-4-yl}piperazine-1-carboxamide]",–,5000 to 30000 nM,–,–
"CCN(C(=O)Nc1c[nH]nc1-c1nc2cc(F)c(OCCCN(C)C)cc2[nH]1)C(C)C [Example 33, 3-{3-[6-(3-dimethylaminopropoxy)-5-fluoro-1H-benzimidazol-2-yl]-1H-pyrazol-4-yl}-1-ethyl-1-isopropylurea]",–,< 100 nM,–,–
"CC(C)N(C(=O)Nc1c[nH]nc1-c1nc2ccc(N3CCN(C)CC3)cc2[nH]1)C(C)C [Example 34, 1,1-Diisopropyl-3-{3-[6-(4-methylpiperazin-1-yl)-1H-benzimidazol-2-yl]-1H-pyrazol-4-yl}urea]",–,< 100 nM,–,–
"CCN(C(=O)Nc1c[nH]nc1-c1nc2ccc(N3CCN(C)CC3)cc2[nH]1)C(C)C [Example 37, 1-Ethyl-1-isopropyl-3-{3-[6-(4-methylpiperazin-1-yl)-1H-benzimidazol-2-yl]-1H-pyrazol-4-yl}urea]",–,< 100 nM,–,–
O=C(Nc1c[nH]nc1-c1nc2cc(F)c(N3CCCOCC3)cc2[nH]1)N1CCCCC1 [Example 38],85 nM,–,108,9170 nM
"CC(C)N(C(=O)Nc1c[nH]nc1-c1nc2cc(F)c(N3CCN(C)CC3)cc2[nH]1)C(C)C [Example 39, 3-{3-[5-Fluoro-6-(4-methylpiperazin-1-yl)-1H-benzimidazol-2-yl]-1H-pyrazol-4-yl}-1,1-diisopropylurea trifluoroacetate]",–,< 100 nM,–,–
"CC(C)N(C(=O)Nc1c[nH]nc1-c1nc2cc(F)c(N3CCCN(C)CC3)cc2[nH]1)C(C)C [Example 40, 3-{3-[5-Fluoro-6-(4-methylperhydro-1,4-diazepin-1-yl)-1H-benzimidazol-2-yl]-1H-pyrazol-4-yl}-1,1-diisopropylurea]",–,< 100 nM,–,–

# Second part, led by results:
"IC50 [1, 3]","IC50 [1, 4]",SMILES,ratio [1],IC50 [2]
–,< 100 nM,"CCN(CC)C(=O)Nc1c[nH]nc1-c1nc2cc(F)c(N3CCOCC3)cc2[nH]1 [Example 2, 1,1-diethyl-3-[3-(5-fluoro-6-morpholin-4-yl-1H-benzimidazol-2-yl)-1H-pyrazol-4-yl]urea Trifluoroacetate]",–,–
–,< 100 nM,"CCN(CC)C(=O)Nc1c[nH]nc1-c1nc2cc(F)c(OCCN3CCCCC3)cc2[nH]1 [Example 4, 1,1-diethyl-3-{3-[5-fluoro-6-(2-piperidin-1-ylethoxy)-1H-benzimidazol-2-yl]-1H-pyrazol-4-yl}urea Trifluoroacetate]",–,–
–,< 100 nM,"CCN(CC)C(=O)Nc1c[nH]nc1-c1nc2cc(F)c(OCCCN(C)C)cc2[nH]1 [Example 5, 3-{3-[6-(3-dimethylaminopropoxy)-5-fluoro-1H-benzimidazol-2-yl]-1H-pyrazol-4-yl}-1,1-diethylurea Trifluoroacetate]",–,–
–,< 100 nM,"CCN(CC)C(=O)Nc1c[nH]nc1-c1nc2cc(F)c(OCCCN3CCCCC3)cc2[nH]1 [Example 6, 1,1-diethyl-3-{3-[5-fluoro-6-(3-piperidin-1-ylpropoxy)-1H-benzimidazol-2-yl]-1H-pyrazol-4-yl}urea Hydrochloride]",–,–
–,< 100 nM,"CC(C)N(C(=O)Nc1c[nH]nc1-c1nc2cc(F)c(N3CCCOCC3)cc2[nH]1)C(C)C [Example 8, 3-[3-(5-fluoro-6-perhydro-1,4-oxazepan-4-yl-1H-benzimidazol-2-yl)-1H-pyrazol-4-yl]-1,1-diisopropylurea]",–,–
–,< 100 nM,"CCN(CC)C(=O)Nc1c[nH]nc1-c1nc2cc(F)c(N3CCCOCC3)cc2[nH]1 [Example 11, 1,1-diethyl-3[3-(5-fluoro-6-perhydro-1,4-oxazepin-4-yl-1H-benzimidazol-2-yl)-1H-pyrazol-4-yl]urea]",–,–
–,< 100 nM,"CCN(CC)C(=O)Nc1c[nH]nc1-c1nc2cc(F)c(N3CCN(C)CC3)cc2[nH]1 [Example 13, 1,1-diethyl-3-{3-[5-fluoro-6-(4-methylpiperazin-1-yl)-1H-benzimidazol-2-yl]-1H-pyrazol-4-yl}urea]",–,–
–,< 100 nM,"CCN(CC)C(=O)Nc1c[nH]nc1-c1nc2cc(F)c(NCCN(C)C)cc2[nH]1 [Example 15, 3-{3-[6-(2-dimethylaminoethylamino)-5-fluoro-1H-benzimidazol-2-yl]-1H-pyrazol-4-yl}-1,1-diethylurea Trifluoroacetate]",–,–
